In one assay the test system is NF-κB. Kind of assay: Western blot of p65 and IκBα phosphorylation, T47D. The following applies: 10 μM, 8 days. Format: cell-based, human.
The subject of assay [1] is LINC00472. Kind of assay: qRT-PCR of LINC00472 expression, T47D. Format: cell-based, human. The following applies: 10 μM, 8 days. An excerpt:
Total RNA was extracted from fresh-frozen tumor samples and cultured tumor cells using the […] kit (Qiagen). RNA samples were reverse-transcribed (RT) to cDNA using the cDNA Reverse Transcription kit (LifeTech), and analyzed for LINC00472 expression with real-time PCR (qPCR). Breast cancer cells were transfected with Lincode Human LINC00472 (79940) siRNA-SMART pool (D-001320-10-05) or Lincode Non-targeting Pool (D-001320-10-05), negative control from Dharmacon, following the manufacturer's protocol for Lipofectamine RNAiMAX (Thermo Fisher Scientific). The method of transfection was known in the art. Cell lysates were prepared for analysis after 36 hours of incubation of the transfected cells. […] After eight days of culture, cells were collected, and total RNA and proteins were extracted for qRT-PCR analysis of LINC00472 and western blot of ERα and NF-κB, respectively.
In general terms: Quantitative PCR measures a nucleic acid by following its amplification.

Assay [2] has as its system LINC00472. Kind of assay: TNF-α treatment, LINC00472 expression. Format: cell-based. The note with it: breast cancer cells, TNF-α 10 ng/ml, 24 hours. How it is done:
Total RNA was extracted from fresh-frozen tumor samples and cultured tumor cells using the Allprep DNA/RNA kit (Qiagen). RNA samples were reverse-transcribed (RT) to cDNA using the cDNA Reverse Transcription kit (LifeTech), and analyzed for LINC00472 expression with real-time PCR (qPCR).
TNF-α (Sigma-Aldrich), diluted in the culture medium immediately before experiment, was added to cultured cells with a final concentration of 10 ng/ml. The cells were incubated for 24 hours before analysis. DMSO (Sigma-Aldrich) treated cells were used as control. Total RNA and proteins were extracted for analysis of LINC00472 expression and NF-κB activation.

Take `CC/C(=C(\c1ccc(O)cc1)c1ccc(OCCN(C)C)cc1)c1ccccc1` [4-hydroxytamoxifen, 4-Hydroxytamoxifen]: the “phosphorylation of p65 and IκBα” value with NF-κB was “increased”. The “expression of LINC00472” value with LINC00472 [1] is on record as “decreased”; with LINC00472 [1] (listed as tamoxifen), “lowered”.
Turning to TNF-α, in the assay with LINC00472 [2], the LINC00472 expression result is given as “no effect”.

(Values after patent publication US20220152082A1, “Methods for Cancer Diagnosis, Prognosis or Treatment” (AnPac Bio-Medical Science Co., Ltd., priority 2019, published 2022).)
